In patent US20090214529A9, “KINESIN INHIBITORS” (TaiGen Biotechnology Co., Ltd., priority 2007, published 2009):

system: tumor cell; test: Cytotoxicity assay (MTS); assay type: cell-based; details: 72 h; incubation for three days; read-out: IC50, tumor cell growth inhibition (MTS)
Method in brief: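 Tumour cells seeded overnight, then exposed to varying compound concentrations for three days. Viability read by MTS/PMS conversion to formazan (2 h, 37 °C, absorbance 490 nm). Results given as blank-corrected T/C (%) against vehicle controls.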

SMILES | IC50
Cc1ccc(Cn2c([C@@H](C(C)C)N(CCN)C(=O)c3ccc(C)cc3)nc3c(oc4ccc(F)cc43)c2=O)cc1 [Compound 180] | < 30 µM
Cc1ccc(C(=O)N(CCCN)C(c2nc3c(sc4ccccc43)c(=O)n2Cc2ccc(Br)s2)C(C)C)cc1 (stereo not drawn) [Compound 144] | < 30 µM
CCC(c1nn2c(cc3ccccc32)c(=O)n1Cc1ccccc1)N(CCCN)C(=O)c1ccc(C)cc1 (stereo not drawn) [Compound 159] | < 30 µM
Cc1ccc(C(=O)N(CCN)C(c2nc3c(oc4ccc(F)cc43)c(=O)n2Cc2cc(Br)cs2)C(C)C)cc1 (stereo not drawn) [Compound 69] | < 30 µM
CC(C)C(c1nc2c(oc3ccc(F)cc32)c(=O)n1Cc1ccc(C#N)s1)N(CCN)C(=O)c1ccc(Br)cc1 (stereo not drawn) [Compound 173] | < 30 µM
Cc1ccc(C(=O)N(CCN)[C@@H](c2nc3c(oc4ccc(F)cc43)c(=O)n2Cc2cc(C#N)cs2)C(C)C)cc1 [Compound 178] | < 30 µM
Cc1ccc(C(=O)N(CCCN)C(c2nc3c(oc4cccc(F)c43)c(=O)n2Cc2ccccc2)C(C)C)cc1 (stereo not drawn) [Compound 61] | < 30 µM
Cc1ccc(C(=O)N(CCCN)C(c2nc3c(oc4ccc(F)cc43)c(=O)n2Cc2ccccc2)C(C)C)cc1 (stereo not drawn) [Compound 63] | < 30 µM
CC(C)[C@H](c1nc2c(oc3ccc(F)cc32)c(=O)n1Cc1ccc(Br)s1)N(CCN)C(=O)c1ccc(Br)cc1 [Compound 210] | < 30 µM
CCC(c1nc2c(oc3ccccc32)c(=O)n1Cc1ccccc1)N(CCCCN)C(=O)c1ccc(C)cc1 (stereo not drawn) [Compound 22] | < 30 µM
Cc1csc(Cn2c([C@@H](C(C)C)N(CCN)C(=O)c3ccc(Cl)cc3)nc3c(oc4ccc(F)cc43)c2=O)c1 [Compound 181] | < 30 µM
Cc1ccc(C(=O)N(CCCN)C(c2nc3c(sc4ccccc43)c(=O)n2Cc2ccc(Cl)s2)C(C)C)cc1 (stereo not drawn) [Compound 138] | < 30 µM
Cc1ccc(C(=O)N(CCN)[C@@H](c2nc3c(oc4ccc(F)cc43)c(=O)n2Cc2ccsc2)C(C)C)cc1F [Compound 195] | < 30 µM
Cc1ccc(C(=O)N(CCN)C(c2nc3c(oc4ccc(F)cc43)c(=O)n2Cc2ccc(C(N)=O)o2)C(C)C)cc1 (stereo not drawn) [Compound 113] | < 30 µM
Cc1ccc(Cn2c(C(C(C)C)N(CCN)C(=O)c3ccc(C)cc3)nc3c(oc4ccc(F)cc43)c2=O)cc1 (stereo not drawn) [Compound 123] | < 30 µM
Cc1ccc(C(=O)N(CCCN)C(c2nc3c(oc4ccccc43)c(=O)n2Cc2ccc(Br)s2)C(C)C)cc1 (stereo not drawn) [Compound 14] | < 30 µM
Cc1ccc(C(=O)N(CCN)C(c2nc3c(oc4ccc(Cl)cc43)c(=O)n2Cc2cc(Br)cs2)C(C)C)cc1 (stereo not drawn) [Compound 49] | < 30 µM
Cc1ccc(C(=O)N(CCCN)C(c2nc3c(oc4ccc(F)cc43)c(=O)n2Cc2ccc(Cl)s2)C(C)C)cc1 (stereo not drawn) [Compound 71] | < 30 µM
Cc1ccc(C(=O)N(CCN)C(c2nc3c(oc4ccc(Cl)cc43)c(=O)n2Cc2cccc(F)c2)C(C)C)cc1 (stereo not drawn) [Compound 96] | < 30 µM
Cc1ccc(C(=O)N(CCN)[C@@H](c2nc3c(oc4ccc(F)cc43)c(=O)n2Cc2cc(C)cs2)C(C)C)cc1 [Compound 179] | < 30 µM
Cc1ccc(C(=O)N(CCN)C(c2nc3c(oc4ccc(C)cc43)c(=O)n2Cc2ccccc2)C(C)C)cc1 (stereo not drawn) [Compound 39] | < 30 µM
CCNC(=O)c1ccc(Cn2c(C(C(C)C)N(CCN)C(=O)c3ccc(C)cc3)nc3c(oc4ccc(F)cc43)c2=O)s1 (stereo not drawn) [Compound 116] | < 30 µM
Cc1ccc(C(=O)N(CCCN)C(c2nc3c(oc4ccc(Cl)cc43)c(=O)n2Cc2ccc(Cl)s2)C(C)C)cc1 (stereo not drawn) [Compound 45] | < 30 µM
Cc1ccc(C(=O)N(CCN)C(c2nc3c(oc4ccc(F)cc43)c(=O)n2Cc2ccc(C(N)=O)s2)C(C)C)cc1 (stereo not drawn) [Compound 98] | < 30 µM

SMILES | IC50
Cc1ccc(C(=O)N(CCN)C(c2nc3c(oc4ccccc43)c(=O)n2Cc2ccc(C#N)s2)C(C)C)cc1 (stereo not drawn) [Compound 163] | < 30 µM
Cc1ccc(Cn2c([C@@H](C(C)C)N(CCN)C(=O)c3ccc(Cl)cc3)nc3c(oc4ccc(F)cc43)c2=O)cc1 [Compound 184] | < 30 µM
Cc1ccc(C(=O)N(CCN)[C@@H](c2nc3c(oc4ccc(F)cc43)c(=O)n2Cc2ccccc2)C2CC2)cc1 [Compound 225] | < 30 µM
Cc1ccc(C(=O)N(CCCN)[C@@H](c2nc3c(oc4ccccc43)c(=O)n2Cc2ccccc2)C(C)C)cc1 [Compound 175] | < 30 µM
CC(C)[C@H](c1nc2c(oc3ccc(F)cc32)c(=O)n1Cc1cccs1)N(CCN)C(=O)c1ccc(Br)cc1 [Compound 201] | < 30 µM
Cc1ccc(C(=O)N(CCCN)C(c2nc3c(sc4ncccc43)c(=O)n2Cc2ccccc2)C(C)C)cc1 (stereo not drawn) [Compound 156] | < 30 µM
CC(C)[C@H](c1nc2c(oc3ccc(F)cc32)c(=O)n1Cc1ccoc1)N(CCN)C(=O)c1ccc(Cl)cc1 [Compound 198] | < 30 µM
Cc1ccc(C(=O)N(CCN)C(c2nc3c(oc4cccc(F)c43)c(=O)n2Cc2ccccc2)C(C)C)cc1 (stereo not drawn) [Compound 60] | < 30 µM
COC(=O)c1ccc(Cn2c(C(C(C)C)N(CCN)C(=O)c3ccc(C)cc3)nc3c(oc4ccc(F)cc43)c2=O)o1 (stereo not drawn) [Compound 102] | < 30 µM
COC(=O)c1ccc(Cn2c(C(C(C)C)N(CCN)C(=O)c3ccc(C)cc3)nc3c(oc4ccc(F)cc43)c2=O)s1 (stereo not drawn) [Compound 88] | < 30 µM
Cc1ccc(C(=O)N(CCN)C(c2nc3c(oc4ccc(F)cc43)c(=O)n2Cc2ccccc2)C(C)C)cc1 (stereo not drawn) [Compound 105] | < 30 µM
Cc1ccc(C(=O)N(CCN)[C@@H](c2nc3c(oc4ccc(F)cc43)c(=O)n2Cc2ccoc2)C(C)C)cc1F [Compound 197] | < 30 µM
Cc1ccc(C(=O)N(CCCN)C(c2nc3c(oc4ccccc43)c(=O)n2Cc2ccc(Cl)s2)C(C)C)cc1 (stereo not drawn) [Compound 16] | < 30 µM
CC(C)C(c1nc2c(sc3ccccc32)c(=O)n1Cc1ccc(Br)s1)N(CCCN)C(=O)c1ccc(Cl)cc1 (stereo not drawn) [Compound 147] | < 30 µM
COC(=O)c1ccc(Cn2c(C(C(C)C)N(CCCN)C(=O)c3ccc(C)cc3)nc3c(oc4ccc(F)cc43)c2=O)s1 (stereo not drawn) [Compound 89] | < 30 µM
C#CCNC(=O)c1ccc(Cn2c(C(C(C)C)N(CCN)C(=O)c3ccc(C)cc3)nc3c(oc4ccc(F)cc43)c2=O)s1 (stereo not drawn) [Compound 121] | < 30 µM
Cc1ccc(C(=O)N(CCN)C(c2nc3c(oc4ccc(Cl)cc43)c(=O)n2Cc2cc(C#N)cs2)C(C)C)cc1 (stereo not drawn) [Compound 129] | < 30 µM
Cc1ccc(C(=O)N(CCN)C(c2nc3c(oc4ccc(Cl)cc43)c(=O)n2Cc2ccc(Cl)s2)C(C)C)cc1 (stereo not drawn) [Compound 46] | < 30 µM
Cc1ccc(C(=O)N(CCN)[C@@H](c2nc3c(oc4ccc(F)cc43)c(=O)n2Cc2cc(Br)cs2)C(C)C)cc1 [Compound 215] | < 30 µM
Cc1ccc(C(=O)N(CCN)C(c2nc3c(oc4ccc(Cl)cc43)c(=O)n2Cc2ccoc2)C(C)C)cc1 (stereo not drawn) [Compound 126] | < 30 µM
Cc1ccc(C(=O)N(CCCN)C(c2nc3c(Br)c4ccccc4cc3c(=O)n2Cc2ccc(Cl)s2)C(C)C)cc1 (stereo not drawn) [Compound 6] | < 30 µM
Cc1ccc(C(=O)N(CCCN)C(c2nc3c(oc4ccc(F)cc43)c(=O)n2Cc2ccc(C(F)(F)F)o2)C(C)C)cc1 (stereo not drawn) [Compound 87] | < 30 µM
Cc1ccc(C(=O)N(CCCN)C(c2nc3cc4[nH]ccc4cc3c(=O)n2Cc2cccs2)C(C)C)cc1 (stereo not drawn) [Compound 2] | < 30 µM
Cc1ccc(C(=O)N(CCN)[C@@H](c2nc3c(oc4ccc(F)cc43)c(=O)n2Cc2ccco2)C(C)C)cc1F [Compound 186] | < 30 µM
